In patent publication US9822086B2, “Process for the preparation of vortioxetine salts” (Egis Gyogyszergyar Zrt., priority 2014, dated 2017):

Assay: Particle size distribution (Malvern Mastersizer 3000) of starting and vortex-mill ground salts
Type: physicochemical
Description: The vortioxetine salts according to the present invention can be ground preferably in a vortex mill, if necessary. Such active ingredients ground in a vortex mill are used in the pharmaceutical compositions according to examples 20-23.
The distribution of the particle size is measured on a Malvern Mastersizer 3000 apparatus under the following conditions: […]

[1] = dispersing pressure 2.0 bar, hemicitrate salt
[2] = dispersing pressure 2.0 bar, monooxalate salt

## 1-[2-(2,4-dimethyl-phenylsulfanyl)-phenyl]-piperazine L-(+)-mandelic acid salt [Vortioxetine-L-mandalate ground]
Dispersing pressure 2.0 bar
  Characteristic particle size d10: 0.5 (±0.6%) μm
  Characteristic particle size d50: 2.1 (±0.2%) μm
  Characteristic particle size d90: 5.0 (±0.9%) μm

## 1-[2-(2,4-dimethyl-phenylsulfanyl)-phenyl]-piperazine L-(+)-mandelic acid salt [Vortioxetine-L-mandalate]
Dispersing pressure 2.0 bar
  Characteristic particle size d10: 8.6 (±0.2%) μm
  Characteristic particle size d50: 41.5 (±0.2%) μm
  Characteristic particle size d90: 114 (±0.9%) μm

## 1-[2-(2,4-dimethyl-phenylsulfanyl)-phenyl]-piperazine hemicitrate salt [Vortioxetine-hemicitrate]
[1]
  Characteristic particle size d10: 5.3 (±0.4%) μm
  Characteristic particle size d50: 25.9 (±0.7%) μm
  Characteristic particle size d90: 83.6 (±0.4%) μm

## Cc1ccc(Sc2ccccc2N2CCNCC2)c(C)c1.O=C(O)C(=O)O [Vortioxetine-monooxalate, 1-[2-(2,4-dimethyl-phenylsulfanyl)-phenyl]-piperazine monooxalate salt]
[2]
  Characteristic particle size d10: 2.0 (±0.3%) μm
  Characteristic particle size d50: 6.8 (±0.5%) μm
  Characteristic particle size d90: 21.14 (±0.7%) μm

## Br.Cc1ccc(Sc2ccccc2N2CCNCC2)c(C)c1 [Vortioxetine-hydrobromide, 1-[2-(2,4-dimethyl-phenylsulfanyl)-phenyl]-piperazine hydrobromide salt, reference compound]
Dispersing pressure 4.0 bar
  Characteristic particle size d10: 1.4 (±2.2%) μm
  Characteristic particle size d50: 10.8 (±1.6%) μm
  Characteristic particle size d90: 98.6 (±4.3%) μm

## Cc1ccc(Sc2ccccc2N2CCNCC2)c(C)c1.O=C(O)C(=O)O [Vortioxetine-monooxalate ground, 1-[2-(2,4-dimethyl-phenylsulfanyl)-phenyl]-piperazine monooxalate salt]
[2]
  Characteristic particle size d10: 0.7 (±0.5%) μm
  Characteristic particle size d50: 2.2 (±0.7%) μm
  Characteristic particle size d90: 5.9 (±0.9%) μm

## 1-[2-(2,4-dimethyl-phenylsulfanyl)-phenyl]-piperazine hemicitrate salt [Vortioxetine-hemicitrate ground]
[1]
  Characteristic particle size d10: 0.6 (±0.7%) μm
  Characteristic particle size d50: 2.9 (±0.2%) μm
  Characteristic particle size d90: 9.1 (±1.1%) μm

## Br.Cc1ccc(Sc2ccccc2N2CCNCC2)c(C)c1 [Vortioxetine-hydrobromide ground, 1-[2-(2,4-dimethyl-phenylsulfanyl)-phenyl]-piperazine hydrobromide salt, reference compound]
Dispersing pressure 2.0 bar
  Characteristic particle size d10: 0.4 (±0.5%) μm
  Characteristic particle size d50: 2.1 (±0.7%) μm
  Characteristic particle size d90: 6.2 (±1.0%) μm
